From US11866394B2, “Prodrugs of hydroxamate-based GCPII inhibitors” (The Johns Hopkins University, priority 2016, dated 2024)

Key:
[1] = Subcutaneous plasma and sciatic nerve pharmacokinetic studies in mice; assay type: in vivo; details: 10 mg/kg equivalent s.q., 10-120 min post dose
Method: Bioanalysis of parent and intact prodrug in plasma and tissues: Prior to extraction, frozen samples were thawed on ice. For plasma, 50 μL of the sample was transferred into siliconized microcentrifuge tubes. For sciatic nerves, the samples were weighed in a 1.7 mL tubes and homogenized in 5× the volume of methanol. The calibration curves were prepared using naïve plasma and sciatic nerves in a concentration range of 50-10000 pmol/g or pmol/mL. Sample preparation involved a single liquid extraction by addition of 300 μL of methanol with internal standard (losartan 200 nM in methanol), followed by vortexing for 30 s and then centrifugation at 10,000×g for 10 min. Supernatant (about 250 μL) was transferred and evaporated to dryness at 40° C. under a gentle stream of nitrogen. The residue was reconstituted with 50 μL of 30% acetonitrile and analysed by LC/MS/MS.
Chromatographic analysis was performed using an Accela™ ultra high-performance system consisting of an analytical pump, and an autosampler coupled with TSQ Vantage mass spectrometer (Thermo Fisher Scientific Inc., Waltham, MA). […] The mobile phase used was composed of 0.1% formic acid in acetonitrile and 0.1% formic acid in H2O with gradient elution, starting with 10% (organic) linearly increasing to 99% up to 2.5 min, maintaining at 99% (2.5-3.5 min) and reequlibrating to 10% by 4.5 min. The total run time for each analyte was 4.5 min. The mass transitions (M−H)− used for Compound 50 were 280.077>175.168, 203.156; and for losartan were 420.895>127.040, 179.108.

[2] = In vitro metabolic stability in human plasma; assay type: in vitro ADME; details: 37° C.
Method: (§1) For metabolic stability, plasma (mouse, and human) and liver microsomes (mouse and human) were used. For stability, prodrugs (10 μM) were spiked in each matrix and incubated in an orbital shaker at 37° C. At predetermined times (0, 30 and 60 min), 100 μL aliquots of the mixture in triplicate were removed and the reaction quenched by addition of three times the volume of ice cold acetonitrile spiked with the internal standard (losartan 5 μM). The samples were vortexed for 30 s and centrifuged 12000 g for 10 min. 50 μL supernatant diluted with 50 μL water was transferred to a 250 μL polypropylene vial sealed with a Teflon cap. Prodrug disappearance was monitored over time using a liquid chromatography and tandem mass spectrometry (LC/MS/MS) method as described below.
(§2) For LC/MS/MS, prodrugs were separated with Thermo Scientific Accela UPLC system coupled to Accela open autosampler on an Agilent C18 (100×2.1 mm id) UPLC column. The autosampler was temperature controlled and operating at 10° C. […] The column effluent was monitored using TSQ Vantage triple-quadrupole mass spectrometric detector, equipped with an electrospray probe set in the positive ionization mode. […]
(§3) For quantification of compound remaining, disappearance of prodrugs was measured from ratio of peak areas of analyte to IS. Percentage remaining was calculated in the following manner: […]

[3] = In vitro metabolic stability in mouse plasma; assay type: in vitro ADME; details: 37° C.
Method: as §1, §2, §3

[4] = tested on: rat chronic constriction injury (CCI) model of neuropathic pain; assay: Chronic constrictive injury (CCI) model of neuropathic pain, thermal hyperalgesia; assay type: in vivo; details: oral daily, 3 mg/kg dose equivalent of 1 (50), 4.6 mg/kg/day for 12
Excerpt: All experimental protocols were approved by the Institutional Animal Care and Use Committee at Johns Hopkins University (Baltimore, MD) and adhered to all of the applicable institutional and governmental guidelines for the humane treatment of laboratory animals. Male Sprague-Dawley rats (200-250 g; n=10-15 per group) were subjected to peripheral neuropathy injury by constriction of the sciatic nerve performed according to methods described previously. (Novakova, et al., 2016; Bennett, et al., 1988; Attal, et al., 1990) In brief, the common sciatic nerve was exposed and 4 ligatures (4.0 chromic gut) tied loosely around it with 1 mm spacing. Wound clips were used to close wounds and animals were returned to home cages for recovery. Hyperalgesia testing was initiated 10 days post-surgery. Pain sensitivity was assessed by determining withdrawal latencies in response to a constant thermal stimulus directed to the plantar surface of the hind paw using a Basile Plantar apparatus (Ugo Basile, Vaarese, Italy) according to the method described by Hargreaves et al. (Hargreaves, et al., 1988) Apparatus was calibrated so that normal rats respond to the stimulus within 15 sec of application. Withdrawal latency (i.e., the time taken for the rat to withdraw its paw from the heat source) was measured to the nearest 0.1 sec. The “difference in score” was calculated by subtracting the average latency of the paw on the non-ligated versus ligated side. Each animal was tested during two experimental sessions per week, with three days allowed to elapse between test sessions. Test agents, prodrug 12 (3 mg/kg equivalent of 1), or gabapentin (50 mg/kg and 100 mg/kg po) as a positive control were dosed daily throughout the study via oral gavage and one hour before testing on experimental days. Statistical analysis with students t-test was used to determine differences between control and treatment group.

[5] = tested on: rat chronic constriction injury (CCI) model of neuropathic pain; assay: as above; assay type: in vivo; details: 1 mg/kg subcutaneous dose (dose equivalent of 50)
[6] = Oral plasma pharmacokinetic studies in mice; assay type: in vivo; details: mice (n=3), 10 mg/kg equivalent dose, plasma 30 min post dose
Method: All pharmacokinetic studies in mice were conducted according to protocols approved by the Animal Care and Use Committee at Johns Hopkins University (Baltimore, MD). Briefly, male CD 1 mice between 25 g and 30 g were obtained from Harlan Laboratories (Indianapolis, Indiana), and maintained on a 12-hour light-dark cycle with ad libitum access to food and water.
Compound 1 and its prodrugs were administered to male mice as a single (p.o.) dose of 10 mg/kg equivalent. Dosing solutions were prepared on the day of the experiment in 50 mM HEPES buffered saline and pH adjusted to 7.4. The mice were sacrificed by pentobarbital injection at 30 minutes post drug administration, and blood collected via cardiac puncture was placed into iced heparin-coated BD microtainers. Blood samples were spun at 2,000 g for 15 minutes, plasma was removed and stored at −80° C. until LC-MS analysis as previously described. (Novakova, et al., 2016) Briefly, chromatographic analysis was performed using an Accela™ ultra high-performance system consisting of an analytical pump, and an autosampler coupled with TSQ Vantage mass spectrometer (Thermo Fisher Scientific Inc., Waltham, MA). […]
Bioanalysis of parent and intact prodrug in plasma and tissues: Prior to extraction, frozen samples were thawed on ice. […] The residue was reconstituted with 50 μL of 30% acetonitrile and analysed by LC/MS/MS. […]

Structure (SMILES)	plasma (systemic) levels of active compound 50 after subcutaneous dosing ([1]; plasma)	sciatic nerve exposure of active compound 50 after subcutaneous dosing ([1]; sciatic nerve)	metabolic stability in human plasma [2]	metabolic stability in mouse plasma [3]	antinociceptive effect on thermal hyperalgesia, ligated side [4]	reversal of thermal hyperalgesia [5]	release / plasma exposure of active compound 50 after oral dosing [6]
CC(=O)ONC(=O)CCC(Cc1ccc(C(=O)O)cc1)C(=O)O (stereo not shown) [Compound 7, 4-(5-(Acetoxyamino)-2-carboxy-5-oxopentyl)benzoic acid]	high systemic levels	excellent nerve exposure	moderately stable	moderately stable	efficacious	efficacious	–
CC(=O)ONC(=O)CCC(Cc1cccc(C(=O)O)c1)C(=O)O (stereo not shown) [Compound 34, 3-(5-(Acetoxyamino)-2-carboxy-5-oxopentyl)benzoic acid]	–	–	–	–	–	–	best release
